Assay results published in PubChem BioAssay AID248 (DTP/NCI, 2004).
“And” between values parts separate entries of the source, which are not always exact repeats. Identical values can stand only once. Toxic doses and inconclusive results are not listed. No stated cut-off is given here; in the data, active means T/C of 150% or more; inactive means T/C below 125%.

Tested on: L1210 leukemia ip in BDF1 mice, survival T/C
Experiment: NCI In Vivo Anticancer Drug Screen. Data for tumor model L1210 Leukemia (intraperitoneal) in B6D2F1 (BDF1) mice
Settings: endpoint: mean survival time, higher = longer survival
How it was run: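 Ratio derived from survival: compound-dosed mice over vehicle-dosed mice, all bearing a transplantable tumor.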

[1] = dose: 50.0 mg/kg/injection, schedule: Q01DX001 (ip), vehicle: carboxymethylcellulose (CMC)
[2] = dose: 100.0 mg/kg/injection, schedule: Q01DX001 (ip), vehicle: carboxymethylcellulose (CMC)
[3] = dose: 100.0 mg/kg/injection, schedule: Q04DX003 (ip), vehicle: Klucel (hydroxypropylcellulose) (HPC)
[4] = dose: 200.0 mg/kg/injection, schedule: Q04DX003 (ip), vehicle: Klucel (hydroxypropylcellulose) (HPC)
[5] = dose: 100.0 mg/kg/injection, schedule: Q04DX002 (ip), vehicle: Klucel (hydroxypropylcellulose) (HPC)
[6] = dose: 200.0 mg/kg/injection, schedule: Q04DX002 (ip), vehicle: Klucel (hydroxypropylcellulose) (HPC)
[7] = dose: 100.0 mg/kg/injection, schedule: Q04DX003 (ip), vehicle: saline with Tween-80
[8] = dose: 200.0 mg/kg/injection, schedule: Q04DX003 (ip), vehicle: saline with Tween-80
[9] = dose: 400.0 mg/kg/injection, schedule: Q04DX003 (ip), vehicle: saline with Tween-80
[10] = dose: 200.0 mg/kg/injection, schedule: Q01DX001 (ip), vehicle: carboxymethylcellulose (CMC)
[11] = dose: 400.0 mg/kg/injection, schedule: Q01DX001 (ip), vehicle: carboxymethylcellulose (CMC)
[12] = dose: 100.0 mg/kg/injection, schedule: Q01DX009 (ip), vehicle: saline with Tween-80
[13] = dose: 200.0 mg/kg/injection, schedule: Q01DX009 (ip), vehicle: saline with Tween-80
[14] = dose: 400.0 mg/kg/injection, schedule: Q01DX009 (ip), vehicle: saline with Tween-80

Measured: T/C

COCCN(CCOC)/N=N/c1nc[nH]c1C(N)=O
inactive: dose: 50.0 mg/kg/injection, schedule: Q01DX001 (ip), vehicle: water 104 % of control | dose: 50.0 mg/kg/injection, schedule: Q04DX003 (ip), vehicle: water 98 % of control | dose: 100.0 mg/kg/injection, schedule: Q01DX001 (ip), vehicle: water 102 % of control | dose: 100.0 mg/kg/injection, schedule: Q04DX003 (ip), vehicle: water 107 % of control | dose: 200.0 mg/kg/injection, schedule: Q01DX001 (ip), vehicle: water 101 % of control | dose: 200.0 mg/kg/injection, schedule: Q04DX003 (ip), vehicle: water 100 % of control | dose: 400.0 mg/kg/injection, schedule: Q01DX001 (ip), vehicle: water 102 % of control | dose: 400.0 mg/kg/injection, schedule: Q04DX003 (ip), vehicle: water 111 % of control

Oc1cccc2ccc3cccc(O)c3c12
inactive: dose: 100.0 mg/kg/injection, schedule: Q04DX003 (ip), vehicle: alcohol 100 % of control | dose: 200.0 mg/kg/injection, schedule: Q04DX003 (ip), vehicle: alcohol 93 % of control

O=C1NC(=S)S/C1=C/c1ccc(/C=C2/SC(=S)NC2=O)cc1
inactive: [1] 92 % of control | [2] 94 % of control

Nc1nc(-c2ccccc2N=NN2CCN(N=Nc3ccccc3-c3nc(N)c4ccccc4n3)CC2)nc2ccccc12
inactive: [3] 101 % of control | [4] 96 % of control

C=CCOC(=O)Nc1cccc2ccccc12
inactive: [5] 91 % of control | [6] 94 % of control | dose: 400.0 mg/kg/injection, schedule: Q04DX002 (ip), vehicle: Klucel (hydroxypropylcellulose) (HPC) 94 % of control

C[As+]1(N)c2ccccc2Nc2ccccc21
inactive: dose: 100.0 mg/kg/injection, schedule: Q01DX001 (ip), vehicle: saline 86 % of control | dose: 200.0 mg/kg/injection, schedule: Q01DX001 (ip), vehicle: saline 93 % of control | dose: 400.0 mg/kg/injection, schedule: Q01DX001 (ip), vehicle: saline 91 % of control

COC(=O)CCC(=O)Nc1cccc2cnccc12
inactive: dose: 100.0 mg/kg/injection, schedule: Q04DX003 (ip), vehicle: saline 102 % of control | dose: 400.0 mg/kg/injection, schedule: Q04DX003 (ip), vehicle: saline 102 % of control

OCCC1=CCCCC1
inactive: [7] 97 % of control | [8] 95 % of control | [9] 93 % of control

C/C=C/C=C/COC(=O)CCCCCCC
inactive: dose: 25.0 mg/kg/injection, schedule: Q04DX002 (ip), vehicle: saline 107 % of control | dose: 50.0 mg/kg/injection, schedule: Q04DX002 (ip), vehicle: saline 103 % of control | dose: 100.0 mg/kg/injection, schedule: Q04DX002 (ip), vehicle: saline 103 % of control | dose: 200.0 mg/kg/injection, schedule: Q04DX002 (ip), vehicle: saline 110 % of control and 112 % of control | dose: 400.0 mg/kg/injection, schedule: Q04DX002 (ip), vehicle: saline 100 % of control

BrCCC[CH2][Pb]([c]1ccccc1)([c]1ccccc1)[c]1ccccc1
inactive: [1] 102 % of control | [2] 105 % of control | [10] 111 % of control | [11] 100 % of control

CC(=O)Oc1ccc(OC(C)=O)c2c1CC1(C)OC1(C)C2 (stereo unspecified)
inactive: dose: 25.0 mg/kg/injection, schedule: Q01DX009 (ip), vehicle: saline 104 % of control | dose: 50.0 mg/kg/injection, schedule: Q01DX009 (ip), vehicle: saline 91 % of control | dose: 100.0 mg/kg/injection, schedule: Q01DX009 (ip), vehicle: saline 89 % of control | dose: 200.0 mg/kg/injection, schedule: Q01DX009 (ip), vehicle: saline 93 % of control | dose: 400.0 mg/kg/injection, schedule: Q01DX009 (ip), vehicle: saline 89 % of control

Brc1cccc[n+]1-c1cc(-[n+]2ccccc2Br)cc(-[n+]2ccccc2Br)c1
inactive: dose: 1.17 mg/kg/injection, schedule: Q01DX001 (ip), vehicle: other 95 % of control | dose: 2.34 mg/kg/injection, schedule: Q01DX001 (ip), vehicle: other 102 % of control | dose: 4.69 mg/kg/injection, schedule: Q01DX001 (ip), vehicle: other 101 % of control

O=C1NNC(=O)NN1
inactive: dose: 50.0 mg/kg/injection, schedule: Q01DX009 (ip), vehicle: Klucel (hydroxypropylcellulose) (HPC) 97 % of control | dose: 100.0 mg/kg/injection, schedule: Q01DX009 (ip), vehicle: Klucel (hydroxypropylcellulose) (HPC) 103 % of control | [3] 100 % of control and 101 % of control | dose: 200.0 mg/kg/injection, schedule: Q01DX009 (ip), vehicle: Klucel (hydroxypropylcellulose) (HPC) 105 % of control | [4] 95 % of control | dose: 400.0 mg/kg/injection, schedule: Q04DX003 (ip), vehicle: Klucel (hydroxypropylcellulose) (HPC) 94 % of control

CC[C@]1(O)C[C@H](OC2CC(N(C)C)C(OC3CC(O)C(O)C(C)O3)C(C)O2)c2c(cc3c(c2O)C(=O)c2c(O)ccc(O)c2C3=O)[C@H]1C(=O)OC (stereo partly specified)
inactive: dose: 0.2 mg/kg/injection, schedule: Q04DX002 (ip), vehicle: Klucel (hydroxypropylcellulose) (HPC) 104 % of control | dose: 0.4 mg/kg/injection, schedule: Q01DX001 (ip), vehicle: Klucel (hydroxypropylcellulose) (HPC) 108 % of control | dose: 0.4 mg/kg/injection, schedule: Q04DX002 (ip), vehicle: Klucel (hydroxypropylcellulose) (HPC) 114 % of control | dose: 0.8 mg/kg/injection, schedule: Q01DX001 (ip), vehicle: Klucel (hydroxypropylcellulose) (HPC) 105 % of control | dose: 0.8 mg/kg/injection, schedule: Q04DX002 (ip), vehicle: Klucel (hydroxypropylcellulose) (HPC) 107 % of control | dose: 1.6 mg/kg/injection, schedule: Q01DX001 (ip), vehicle: Klucel (hydroxypropylcellulose) (HPC) 111 % of control | dose: 1.6 mg/kg/injection, schedule: Q04DX002 (ip), vehicle: Klucel (hydroxypropylcellulose) (HPC) 107 % of control | dose: 3.2 mg/kg/injection, schedule: Q01DX001 (ip), vehicle: Klucel (hydroxypropylcellulose) (HPC) 116 % of control | dose: 6.4 mg/kg/injection, schedule: Q01DX001 (ip), vehicle: Klucel (hydroxypropylcellulose) (HPC) 120 % of control

CCCCCCCC/C=C\CCCCCCCC(=O)OCCSCCOC(C)=O
inactive: [12] 97 % of control | [7] 89 % of control | [13] 102 % of control | [8] 92 % of control | [14] 102 % of control | [9] 94 % of control

CCOC(=O)c1c(C)[nH]c(C)cc1=O
inactive: dose: 100.0 mg/kg/injection, schedule: Q01DX001 (ip), vehicle: saline with Tween-80 95 % of control | [12] 98 % of control | dose: 200.0 mg/kg/injection, schedule: Q01DX001 (ip), vehicle: saline with Tween-80 95 % of control | [13] 102 % of control | dose: 400.0 mg/kg/injection, schedule: Q01DX001 (ip), vehicle: saline with Tween-80 90 % of control | [14] 95 % of control

CCCCCCCC(CC(=O)O)OC(=O)CC(CCCCCCC)OC1OC(C)C(O)C(O)C1OC1OC(C)C(O)C(O)C1O (stereo unspecified)
inactive: [5] 102 % of control | [6] 102 % of control

CCCC(=O)c1cc(C)ccc1OC
inactive: [2] 103 % of control | [10] 106 % of control | [11] 106 % of control

Cc1cc(NCCN(C(C)C)C(C)C)nc(Nc2nc3ccc(Cl)cc3[nH]2)n1
inactive: dose: 12.5 mg/kg/injection, schedule: Q01DX009 (ip), vehicle: saline with Tween-80 98 % of control | dose: 50.0 mg/kg/injection, schedule: Q01DX009 (ip), vehicle: saline with Tween-80 91 % of control
